We go through 31 substances from patent publication US10336809B2, “Peptides and combination of peptides for use in immunotherapy against various tumors” (immatics biotechnologies GmbH, priority 2015, dated 2019).

The test system of this experiment is CD8+ T cells. Nature of the experiment: In vitro T-cell priming assay with aAPCs loaded with peptide/MHC complexes and anti-CD28 antibody, pMHC multimer readout. In kind it is cell-based, human. The following applies: for Wells positive [%]: in vitro immunogenicity, HLA-A*02 restricted peptides, CD8+ T cells of healthy donors, pMHC multimer readout; for in vitro immunogenicity, donors: positive donors. From the text:
In order to obtain information regarding the immunogenicity of the TUMAPs of the present invention, the inventors performed investigations using an in vitro T-cell priming assay based on repeated stimulations of CD8+ T cells with artificial antigen presenting cells (aAPCs) loaded with peptide/MHC complexes and anti-CD28 antibody.
In order to perform in vitro stimulations by artificial antigen presenting cells loaded with peptide-MHC complex (pMHC) and anti-CD28 antibody, the inventors first isolated CD8+ T cells from fresh HLA-A*02 leukapheresis products via positive selection using CD8 microbeads (Miltenyi Biotec, Bergisch-Gladbach, Germany) of healthy donors obtained from the University clinics Mannheim, Germany, after informed consent. PBMCs and isolated CD8+ lymphocytes were incubated in T-cell medium (TCM) until use consisting of RPMI-Glutamax (Invitrogen, Karlsruhe, Germany) supplemented with 10% heat inactivated human AB serum (PAN-Biotech, Aidenbach, Germany), 100 U/ml Penicillin/100 μg/ml Streptomycin (Cambrex, Cologne, Germany), 1 mM sodium pyruvate (CC Pro, Oberdorla, Germany), 20 μg/ml Gentamycin (Cambrex). 2.5 ng/ml IL-7 (PromoCell, Heidelberg, Germany) and 10 U/ml IL-2 (Novartis Pharma, Nürnberg, Germany) were also added to the TCM at this step. Generation of pMHC/anti-CD28 coated beads, T-cell stimulations and readout was performed in a highly defined in vitro system using four different pMHC molecules per stimulation condition and 8 different pMHC molecules per readout condition.
The purified co-stimulatory mouse IgG2a anti human CD28 Ab 9.3 (Jung et al., 1987) was chemically biotinylated using Sulfo-N-hydroxysuccinimidobiotin as recommended by the manufacturer (Perbio, Bonn, Germany). Beads used were 5.6 μm diameter streptavidin coated polystyrene particles (Bangs Laboratories, Illinois, USA).
pMHC used for positive and negative control stimulations were A*0201/MLA-001 (peptide […] (SEQ ID NO. 289) from modified Melan-A/MART-1) and A*0201/DDX5-001 ([…] from DDX5, SEQ ID NO. 290), respectively.
800.000 beads/200 μl were coated in 96-well plates in the presence of 4×12.5 ng different biotin-pMHC, washed and 600 ng biotin anti-CD28 were added subsequently in a volume of 200 μl. Stimulations were initiated in 96-well plates by co-incubating […] CD8+ T cells with 2×10^5 washed coated beads in 200 μl TCM supplemented with 5 ng/ml IL-12 (PromoCell) for 3 days at 37° C. Half of the medium was then exchanged by fresh TCM supplemented with 80 U/ml IL-2 and incubating was continued for 4 days at 37° C. This stimulation cycle was performed for a total of three times. For the pMHC multimer readout using 8 different pMHC molecules per condition, a two-dimensional combinatorial coding approach was used as previously described (Andersen et al., 2012) with minor modifications encompassing coupling to 5 different fluorochromes. Finally, multimeric analyses were performed by staining the cells with Live/dead near IR dye (Invitrogen, Karlsruhe, Germany), CD8-FITC antibody clone SK1 (BD, Heidelberg, Germany) and fluorescent pMHC multimers. For analysis, a BD LSRII SORP cytometer equipped with appropriate lasers and filters was used. Peptide specific cells were calculated as percentage of total CD8+ cells. Evaluation of multimeric analysis was done using the FlowJo software (Tree Star, Oregon, USA). In vitro priming of specific multimer+ CD8+ lymphocytes was detected by comparing to negative control stimulations.
Exemplary flow cytometry results after TUMAP-specific multimer staining for 2 peptides of the invention are shown in FIG. 3 together with corresponding negative controls.

In the case of “34 (TLNTLDINL; listed as Homo sapiens) [compound 34]”, the “Wells positive [%]” value was “++++ (>=70% = ++++)”. Still for that read-out and setting: under “157 (ILQDGQFLV; listed as Homo sapiens) [compound 157]” stands “+ (<20% = +)”; under “242 (KLQEEIPVL; listed as Homo sapiens) [compound 242]”, “+ (<20% = +)”. Regarding “66 (AMFPDTIPRV; listed as Homo sapiens) [compound 66]”, the “Wells positive [%]” value was “+ (<20% = +)”. Take “35 (VIIKGLEEI; listed as Homo sapiens) [compound 35]”: the “Wells positive [%]” value is recorded as “+ (<20% = +)”.

With “263 (SIIEYLPTL; listed as Homo sapiens) [compound 263]”, the “Wells positive [%]” value is “+ (<20% = +)”. For the substance “27 (GLLGKVTSV; listed as Homo sapiens) [compound 27]”, the “Wells positive [%]” value was “+ (<20% = +)”.

For “254 (ALGDKFLLRV; listed as Homo sapiens) [compound 254]”, the “Wells positive [%]” value was “+ (<20% = +)”. For the substance “102 (GLYPVTLVGV; listed as Homo sapiens) [compound 102]”, the “Wells positive [%]” value is given as “+ (<20% = +)”. Consider “50 (ILLSVLHQL; listed as Homo sapiens) [compound 50]”, for which the “Wells positive [%]” value is recorded as “+ (<20% = +)”. “267 (YLLDMPLWYL; listed as Homo sapiens) [compound 267]”: the “Wells positive [%]” value was “+ (<20% = +)”. On to “246 (ALAGIVTNV; listed as Homo sapiens) [compound 246]”, for which the “Wells positive [%]” value is “+ (<20% = +)”.

Turning to “14 (YTFSGDVQL; listed as Homo sapiens) [compound 14]”, the “Wells positive [%]” value is given as “+ (<20% = +)”. Take “287 (KIQEILTQV; listed as Homo sapiens) [compound 287]”: the “in vitro immunogenicity, donors” value (healthy HLA-A*02+ donors) is on record as “+++ (50%-69% = +++)”. Moreover, the “in vitro immunogenicity, wells” value (healthy HLA-A*02+ donors, positive wells) is recorded as “+ (<20% = +)”.

For the substance “77 (ALYGNVQQV; listed as Homo sapiens) [compound 77]”, the “Wells positive [%]” value was “+ (<20% = +)”. For the substance “39 (YLEDGFAYV; listed as Homo sapiens) [compound 39]”, the “Wells positive [%]” value is “++++ (>=70% = ++++)”. Consider “236 (KMSELQTYV; listed as Homo sapiens) [compound 236]”, for which the “Wells positive [%]” value is “+ (<20% = +)”. On the same count and under the same terms, under “17 (GLLPSAESIKL; listed as Homo sapiens) [compound 17]” stands “+ (<20% = +)”; under “29 (KMISAIPTL; listed as Homo sapiens) [compound 29]”, “+ (<20% = +)”; under “260 (ALNESLVEC; listed as Homo sapiens) [compound 260]”, “+ (<20% = +)”. Consider “97 (KLFEKSTGL; listed as Homo sapiens) [compound 97]”, for which the “Wells positive [%]” value was “+ (<20% = +)”. For “121 (ALYVQAPTV; listed as Homo sapiens) [compound 121]”, the “Wells positive [%]” value is listed as “+ (<20% = +)”. Consider “89 (SLAETIFIV; listed as Homo sapiens) [compound 89]”, for which the “Wells positive [%]” value is given as “+ (<20% = +)”. Consider “264 (TLHDQVHLL; listed as Homo sapiens) [compound 264]”, for which the “Wells positive [%]” value was “+ (<20% = +)”. “255 (FLMKNSDLYGA; listed as Homo sapiens) [compound 255]”: the “Wells positive [%]” value was “+ (<20% = +)”. In the case of “288 (SLYKGLLSV; listed as Homo sapiens) [compound 288]”, the “in vitro immunogenicity, donors” value (healthy HLA-A*02+ donors) was “++++ (>=70% = ++++)”. With “9 (SLITGQDLLSV; listed as Homo sapiens) [compound 9]”, the “Wells positive [%]” value is “+ (<20% = +)”. For the substance “4 (VLFGELPAL; listed as Homo sapiens) [compound 4]”, the “Wells positive [%]” value is “+ (<20% = +)”. For the substance “233 (SLFESLEYL; listed as Homo sapiens) [compound 233]”, the “Wells positive [%]” value is recorded as “+ (<20% = +)”.

Consider “101 (SLLEVNEASSV; listed as Homo sapiens) [compound 101]”, for which the “Wells positive [%]” value is on record as “+ (<20% = +)”. Consider “257 (KLIDHQGLYL; listed as Homo sapiens) [compound 257]”, for which the “Wells positive [%]” value was “+ (<20% = +)”.
